Each structure is given as a SMILES string. Several values for one entry are separate records, joined by “and”; a condition that tells them apart may be missing. Identical values can stand only once. Inconclusive results and toxic doses are left out.

T/C data for 22 compounds are collected here from PubChem BioAssay AID200 (DTP/NCI, 2004).

In the test the test system is B6C3F1 mice, B16 melanoma ip, median survival T/C. Nature of the test: NCI In Vivo Anticancer Drug Screen. Data for tumor model B16 Melanoma (intraperitoneal) in B6C3F1 mice. The note with it: endpoint: median survival time, schedule: Q01DX009 (ip), higher = longer survival. Summed up:
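Mice bearing transplanted tumor were dosed with compound or vehicle, and survival was recorded. Activity is expressed as the treated-group measurement (T) divided by the vehicle control measurement (C).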

The mark [1] stands for this setting: dose: 12.5 mg/kg/injection, vehicle: saline with Tween-80.
Setting [2] is: dose: 25.0 mg/kg/injection, vehicle: saline with Tween-80.
[3] abbreviates: dose: 50.0 mg/kg/injection, vehicle: saline with Tween-80.
Where [4] appears, read: dose: 100.0 mg/kg/injection, vehicle: saline with Tween-80.
Setting [5] is: dose: 6.25 mg/kg/injection, vehicle: saline with Tween-80.
Setting [6] is: dose: 6.25 mg/kg/injection, vehicle: water.
Setting [7] is: dose: 25.0 mg/kg/injection, vehicle: saline.
Setting [8] is: dose: 50.0 mg/kg/injection, vehicle: saline.
The mark [9] stands for this setting: dose: 100.0 mg/kg/injection, vehicle: saline.
Where [10] appears, read: dose: 200.0 mg/kg/injection, vehicle: saline with Tween-80.
[11] abbreviates: dose: 400.0 mg/kg/injection, vehicle: saline with Tween-80.
Where [12] appears, read: dose: 12.5 mg/kg/injection, vehicle: saline.

As for `O=[N+]([O-])c1ccc(N2CCOCC2)c2c1no[n+]2[O-]`, the T/C under setting [1] is 99 % of control, the T/C under setting [2] is 101 % of control, the T/C under setting [3] was 98 % of control and the T/C under setting [4] was 104 % of control.

For the compound `CN=C(N)NCCCCCCCCNC(N)=NC`, the T/C reads like this: under setting [5], 102 % of control; under setting [1], 98 % of control.

Consider `CNC(=O)c1cccc2c(Nc3ccc(NS(C)(=O)=O)cc3OC)c3cccc(C)c3nc12`, for which the T/C reads like this: (dose: 0.75 mg/kg/injection, vehicle: water) 116 % of control; (dose: 0.78 mg/kg/injection, vehicle: water) 114 % of control; (dose: 3.0 mg/kg/injection, vehicle: water) 168 % of control; under setting [6], 106 % of control.

With `N[C@@H](C[C@H]1CCC(=O)[C@@H]2O[C@H]12)C(=O)O`, the T/C is 99 % of control (dose: 25.0 mg/kg/injection, vehicle: saline + alcohol); 110 % of control (dose: 50.0 mg/kg/injection, vehicle: saline + alcohol); 155 % of control (dose: 400.0 mg/kg/injection, vehicle: saline + alcohol).

As to `CC(O)CNC1c2ccccc2CC1O` (stereo not drawn), the T/C is, setting by setting: under setting [7], 90 % of control; under setting [8], 93 % of control; under setting [9], 89 % of control.

`CN=C(N)N/N=C(\C)c1ccc2sc3ccc(/C(C)=N/NC(N)=NC)cc3c2c1`: the T/C is 108 % of control under setting [2]; 113 % of control under setting [3]; 120 % of control under setting [4]; 119 % of control under setting [10]; 95 % of control under setting [11].

`Cc1nnc2ncccn12`: the T/C under setting [12] was 97 % of control and 106 % of control; the T/C under setting [7] is 96 % of control and 103 % of control; the T/C under setting [8] is 98 % of control and 100 % of control; the T/C under setting [9] is 97 % of control and 103 % of control; the T/C (dose: 200.0 mg/kg/injection, vehicle: saline) was 94 % of control and 97 % of control; the T/C (dose: 400.0 mg/kg/injection, vehicle: saline) was 90 % of control and 102 % of control.

As to `COc1ccc2c(c1[N+](=O)[O-])CC[C@@H]1[C@@H]2CC[C@]2(C)C(=O)CC[C@@H]12`, the T/C was 94 % of control and 95 % of control under setting [3]; 91 % of control and 108 % of control under setting [4]; 90 % of control under setting [10]; 91 % of control under setting [11]; 91 % of control (dose: 800.0 mg/kg/injection, vehicle: saline with Tween-80).

Regarding `Cc1c(C)c2c(c(C)c1OC(=O)CCC(=O)O)CCC(C)(CCCC(C)CCCC(C)CCCC(C)C)O2` (stereo not drawn), the T/C (dose: 25.0 mg/kg/injection, vehicle: distilled water + Tween-80 + alcohol) is 96 % of control; the T/C (dose: 50.0 mg/kg/injection, vehicle: distilled water + Tween-80 + alcohol) was 112 % of control; the T/C (dose: 100.0 mg/kg/injection, vehicle: distilled water + Tween-80 + alcohol) was 114 % of control; the T/C (dose: 200.0 mg/kg/injection, vehicle: distilled water + Tween-80 + alcohol) is 86 % of control.

Take `O=C(NC(Cc1ccc(I)cc1)C(=O)O)c1ccc(Br)cc1` (stereo not drawn): the T/C was 96 % of control (dose: 25.0 mg/kg/injection, vehicle: sodium bicarbonate); 104 % of control (dose: 50.0 mg/kg/injection, vehicle: sodium bicarbonate); 101 % of control (dose: 100.0 mg/kg/injection, vehicle: sodium bicarbonate); 97 % of control (dose: 200.0 mg/kg/injection, vehicle: sodium bicarbonate).

With `CS(C)(O)NC(N)=O`, the T/C reads like this: (dose: 50.0 mg/kg/injection, vehicle: water) 105 % of control; (dose: 100.0 mg/kg/injection, vehicle: water) 103 % of control; (dose: 200.0 mg/kg/injection, vehicle: water) 100 % of control; (dose: 400.0 mg/kg/injection, vehicle: water) 105 % of control.

As to `O=c1[nH]c(=O)n(C2CC(O)C(CO)O2)cc1I` (stereo not drawn), the T/C under setting [11] was 111 % of control.

With `COc1cc2oc3c(C)c(=O)cc4oc(-c5ccccc5)cc(c2c2c1CCC(c1ccccc1)O2)c43` (stereo not drawn), the T/C runs as follows: (dose: 0.85 mg/kg/injection, vehicle: Klucel (hydroxypropylcellulose) (HPC)) 105 % of control; (dose: 1.75 mg/kg/injection, vehicle: Klucel (hydroxypropylcellulose) (HPC)) 101 % of control; (dose: 3.5 mg/kg/injection, vehicle: Klucel (hydroxypropylcellulose) (HPC)) 103 % of control; (dose: 7.0 mg/kg/injection, vehicle: Klucel (hydroxypropylcellulose) (HPC)) 95 % of control and 106 % of control; (dose: 14.0 mg/kg/injection, vehicle: Klucel (hydroxypropylcellulose) (HPC)) 97 % of control and 104 % of control; (dose: 28.0 mg/kg/injection, vehicle: Klucel (hydroxypropylcellulose) (HPC)) 121 % of control.

Turning to `O=C(Nc1ccc(Cl)c(Cl)c1)Nc1c(Oc2ccc(Cl)c(Cl)c2)ccc(Cl)c1S(=O)(=O)O`, the T/C is 99 % of control under setting [5]; 101 % of control under setting [1]; 97 % of control under setting [2]; 99 % of control under setting [3]; 97 % of control under setting [4]; 99 % of control under setting [10].

As for `OC1COC(c2ccccc2)OC1C1OC(c2ccccc2)OC2COC(c3ccccc3)OC21` (stereo not drawn), the T/C (dose: 3.12 mg/kg/injection, vehicle: saline with Tween-80) is 93 % of control; the T/C under setting [5] was 93 % of control; the T/C under setting [1] is 91 % of control.

Consider `O=NNc1ccc(Cl)cn1`, for which the T/C by setting is: (dose: 1.56 mg/kg/injection, vehicle: water) 118 % of control; (dose: 3.13 mg/kg/injection, vehicle: water) 107 % of control; under setting [6], 115 % of control; (dose: 12.5 mg/kg/injection, vehicle: water) 166 % of control and 168 % of control.

Regarding `N=C1C=C[C@]2(O)C[C@H](Cl)CN12`, the T/C reads like this: (dose: 0.75 mg/kg/injection, vehicle: saline) 102 % of control; (dose: 1.5 mg/kg/injection, vehicle: saline) 111 % of control; (dose: 3.0 mg/kg/injection, vehicle: saline) 119 % of control; (dose: 6.0 mg/kg/injection, vehicle: saline) 104 % of control.

As for `C=CCNc1nc2c(s1)CCc1cc(OC)c(OC)cc1-2`, the T/C reads like this: under setting [1], 103 % of control; under setting [2], 116 % of control; under setting [3], 107 % of control; under setting [4], 100 % of control; under setting [10], 103 % of control; under setting [11], 103 % of control.

As for `c1cn[nH]c1`, the T/C is 94 % of control under setting [12], 118 % of control under setting [7], 118 % of control under setting [8] and 106 % of control under setting [9].

For the compound `Cc1c(NS(=O)(=O)c2ccccc2)c(C)c(NS(=O)(=O)c2ccccc2)c(C)c1NS(=O)(=O)c1ccccc1`, the T/C was 97 % of control under setting [1], 100 % of control under setting [2] and 94 % of control under setting [3].

Regarding `CCN(CC)CCOCCO`, the T/C is, setting by setting: (dose: 12.0 mg/kg/injection, vehicle: saline) 105 % of control; under setting [7], 116 % of control; under setting [8], 98 % of control; under setting [9], 90 % of control.

With `CC12CCC3C(CCC4CC(OC(=O)Cc5ccc(N(CCCl)CCCl)cc5)CCC43C)C1CCC(=O)N2` (stereo not drawn), the T/C by setting is: (dose: 1.5 mg/kg/injection, vehicle: saline with Tween-80) 113 % of control; (dose: 3.0 mg/kg/injection, vehicle: saline with Tween-80) 106 % of control; (dose: 12.0 mg/kg/injection, vehicle: saline with Tween-80) 167 % of control.
